# Measurements reported in PMC8453848, “Effect of GLPG1205, a GPR84 Modulator, on CYP2C9, CYP2C19, and CYP1A2 Enzymes: In Vitro and Phase 1 Studies” (Clinical Pharmacology in Drug Development, 2021).
# Columns and labels:
# CYP1A2 mRNA = test: in vitro; details: human, hepatocytes, 24 h
# Protocol: (§1) GLPG1205 was incubated with monolayer cultures of fresh human hepatocytes from 3 individual donors for 24 hours (messenger ribonucleic acid [mRNA] analysis) or 48 hours (enzyme activity) at 6 different concentrations: 0.5, 1, 5, 10, 50, and 100 μM (0.19, 0.38, 1.89, 3.78, 18.9, and 37.8 μg/mL, respectively). All incubations contained 0.4% dimethylsulfoxide (DMSO). Incubation with 50 μM omeprazole containing 0.1% DMSO was used as a positive control. Incubations with 0.1% and 0.4% DMSO alone were used as negative controls.
# (§2) Following a 24‐hour incubation, CYP1A2 mRNA was quantified using real‐time quantitative reverse transcription polymerase chain reaction.
# (§3) A concentration‐dependent increase in mRNA of <100% was considered a negative finding when the increase in mRNA was less than 20% of the response of the positive control.
# (§4) Incubation for CYP1A2 Induction Experiment The incubations for enzyme activity measurements were performed with cell monolayers in 96-well plates and the incubations for mRNA measurements were performed with cell monolayers in 24-well plates.^3
# (§5) GLPG1205 was incubated with monolayer culture of human fresh hepatocytes from 3 individual donors for 24 or 48 hours, for messenger ribonucleic acid (mRNA) analysis and enzyme activity, respectively, at 6 different concentrations (n = 3): 0.1, 0.5, 1, 5, 10 and 50 µM (0.038, 0.19, 0.38, 1.89, 3.78 and 18.9 µg/mL, respectively). […]
# (§6) mRNA Analysis At the end of the 24-hour incubation period, the incubation medium was removed and the cell monolayers were washed twice with 500 µL phosphate buffered saline. […] Total RNA and RNA quality were assessed by measuring 260/280 nm and 260/230 nm absorbance ratios. RNA concentrations were used to normalize the quantity of RNA used for the reverse transcriptase assay. […]
# (§7) Quantitative real-time reverse transcription polymerase chain reaction (qRT-PCR) was performed using SYBRGreen® validated primers for CYP1A2.^3 The housekeeping gene glyceraldehyde 3-phosphate dehydrogenase (GAPDH) was analyzed in parallel as the control gene. […]
# (§8) The fold induction (FI) was determined as: […]
# CYP1A2 = test: in vitro; details: human
# Protocol: as §1, §2, §3, §4, §5, §6, §7, §8
smiles,measurement,setting,value
"O=c1nc(OC[C@@H]2COCCO2)cc2n1CCc1cc(C#CC3CC3)ccc1-2 [GLPG1205, 9‐cyclopropylethynyl‐2‐[(S)‐1‐(1,4)dioxan‐2‐ylmethoxy]‐6,7‐dihydropyrimido[6,1‐a]isoquinolin‐4‐one]",increase in CYP1A2 mRNA expression compared with the vehicle control,CYP1A2 mRNA,greater than 100%
same,"fold induction at 24 h, 1 µM","CYP1A2; CYP1A2 mRNA, fold induction, mean (SD)",6.12 ± 0.65
same,"fold induction at 24 h, 1 µM",CYP1A2; maximum fold induction of CYP1A2 mRNA,6
